Activity calls are given as the source filed them.
Experiments:
[1] = molecular target: T1, Runt-related transcription factor 1/Core-binding factor subunit beta (Homo sapiens, UniProt Q01196+Q13951); experiment: inhibitors of RUNX1 Runt–CBFb-SMMHC binding, biochemical, TR-FRET (AID 1438); assay type: protein assay
[2] = molecular target: T2, Voltage-gated N-type calcium channel alpha-1B subunit/Amyloid beta A4 precursor protein-binding family A member 1 (Homo sapiens, UniProt Q00975+Q02410); assay type: protein assay
[3] = molecular target: T1, Runt-related transcription factor 1/Core-binding factor subunit beta; experiment: inhibitors of RUNX1 Runt–CBFb-SMMHC binding, primary screen, biochemical, FRET, Cerulean-Runt, Venus-CBFb-SMMHC, uHTS (AID 1434); assay type: protein assay;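 further: partner is the CBFb-SMMHC leukemia fusion protein rather than wild-type CBFb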
[4] = molecular target: T2, Voltage-gated N-type calcium channel alpha-1B subunit/Amyloid beta A4 precursor protein-binding family A member 1; assay type: protein assay; remark: listed apart in the source
[5] = molecular target: T3, Heat shock factor protein 1 (Mus musculus, UniProt P38532); experiment: HSF1 potentiators in luciferase reporter cells, confirmation, cell-based, NIH3T3, luminescence, dose retest (AID 435004); assay type: functional;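 further: stress induced by proteasome inhibitor MG132 added 30 min after compound; luciferase reporter driven by HSF1 response element in NIH3T3 cells; actives raise luminescence as potentiators of the MG132 stress response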
T3 sequence (P38532 whole entry): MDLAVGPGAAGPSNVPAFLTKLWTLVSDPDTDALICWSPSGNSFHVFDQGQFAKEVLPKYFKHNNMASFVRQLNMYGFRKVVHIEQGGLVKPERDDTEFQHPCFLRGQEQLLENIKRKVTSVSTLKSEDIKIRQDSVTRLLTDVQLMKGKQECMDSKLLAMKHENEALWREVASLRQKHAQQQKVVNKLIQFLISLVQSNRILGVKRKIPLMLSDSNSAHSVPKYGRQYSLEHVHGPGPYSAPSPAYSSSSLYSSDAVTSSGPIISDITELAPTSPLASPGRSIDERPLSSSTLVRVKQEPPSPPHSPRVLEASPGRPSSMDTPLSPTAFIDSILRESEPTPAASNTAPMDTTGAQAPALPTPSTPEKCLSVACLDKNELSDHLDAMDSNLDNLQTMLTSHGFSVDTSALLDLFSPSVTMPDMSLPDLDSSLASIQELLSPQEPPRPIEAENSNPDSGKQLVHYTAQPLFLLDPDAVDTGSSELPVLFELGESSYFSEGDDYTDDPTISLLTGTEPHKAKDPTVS

[6] = THP-1 cell cytotoxicity, dose response, cytotoxicity control for Vif-APOBEC3G degradation inhibitor project, THP-1 cells (AID 1117359); assay type: functional; conditions: Human immunodeficiency virus 1, THP-1
HEK293 [7] = experiment: NOD2 signaling inhibitors in MDP-stimulated cells, cell-based, uHTS, luminescence (AID 2001); assay type: functional; conditions: Homo sapiens
HEK293 [8] = experiment: cells; assay type: functional, cell-based; conditions: Homo sapiens
HEK293 [9] = experiment: NOD1 signaling inhibitors, primary screen, cell-based, luminescence, uHTS (AID 1578); assay type: functional; conditions: Homo sapiens
[10] = molecular target: T4, Histone-lysine N-methyltransferase NSD2 (Homo sapiens, UniProt O96028); assay type: biochemical
T4 sequence (O96028 whole entry): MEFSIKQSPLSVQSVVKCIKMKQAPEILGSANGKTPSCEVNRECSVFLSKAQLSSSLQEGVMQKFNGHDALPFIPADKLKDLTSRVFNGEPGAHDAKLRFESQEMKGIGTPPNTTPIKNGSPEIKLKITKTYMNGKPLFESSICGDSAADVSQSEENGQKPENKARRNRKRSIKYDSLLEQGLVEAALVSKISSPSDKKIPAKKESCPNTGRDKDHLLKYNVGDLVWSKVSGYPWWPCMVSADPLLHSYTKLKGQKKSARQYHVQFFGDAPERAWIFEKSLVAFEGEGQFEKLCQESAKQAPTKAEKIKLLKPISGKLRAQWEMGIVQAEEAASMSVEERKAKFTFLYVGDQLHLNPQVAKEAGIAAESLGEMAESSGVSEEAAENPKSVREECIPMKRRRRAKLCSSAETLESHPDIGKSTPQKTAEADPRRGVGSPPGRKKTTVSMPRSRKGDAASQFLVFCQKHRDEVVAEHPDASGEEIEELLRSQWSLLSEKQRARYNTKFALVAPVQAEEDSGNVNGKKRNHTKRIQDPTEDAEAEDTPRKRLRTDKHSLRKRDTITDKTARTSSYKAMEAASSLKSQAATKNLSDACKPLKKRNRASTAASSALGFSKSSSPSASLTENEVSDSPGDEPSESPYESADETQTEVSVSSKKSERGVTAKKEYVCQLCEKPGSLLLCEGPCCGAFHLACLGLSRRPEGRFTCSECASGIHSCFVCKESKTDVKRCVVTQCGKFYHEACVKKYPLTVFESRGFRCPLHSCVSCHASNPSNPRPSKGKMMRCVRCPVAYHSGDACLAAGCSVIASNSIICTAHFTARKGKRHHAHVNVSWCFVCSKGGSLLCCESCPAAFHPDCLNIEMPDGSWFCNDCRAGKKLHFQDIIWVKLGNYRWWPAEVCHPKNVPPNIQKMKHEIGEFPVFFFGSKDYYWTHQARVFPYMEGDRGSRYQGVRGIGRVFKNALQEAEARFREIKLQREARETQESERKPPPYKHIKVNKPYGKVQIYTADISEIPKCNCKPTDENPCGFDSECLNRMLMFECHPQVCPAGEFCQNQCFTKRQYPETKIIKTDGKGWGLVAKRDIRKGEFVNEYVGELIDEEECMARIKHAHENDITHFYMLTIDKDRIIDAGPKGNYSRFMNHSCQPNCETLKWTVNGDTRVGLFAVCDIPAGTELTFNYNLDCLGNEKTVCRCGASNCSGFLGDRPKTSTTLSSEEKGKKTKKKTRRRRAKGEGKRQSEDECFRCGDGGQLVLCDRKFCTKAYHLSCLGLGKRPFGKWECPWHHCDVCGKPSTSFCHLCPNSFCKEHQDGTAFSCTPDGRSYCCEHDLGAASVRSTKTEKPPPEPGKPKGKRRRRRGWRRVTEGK

HEK293 [11] = experiment: cells; assay type: functional, cell-based; conditions: Homo sapiens; remark: listed apart in the source
[12] = molecular target: Nucleotide-binding oligomerization domain-containing protein 2 (Homo sapiens, UniProt Q9HC29); experiment: NOD2 signaling inhibitors, cell-based, luminescence, uHTS, HEK293 (AID 1566); assay type: functional
HEK293 [13] = experiment: cells; assay type: functional, cell-based; conditions: Homo sapiens; remark: listed apart in the source
[14] = molecular target: T5, Microphthalmia-associated transcription factor (Homo sapiens, UniProt O75030); experiment: TRPM1 promoter luciferase signal decrease, dose response, MITF inhibitor project, cell-based, SK-MEL-5, cherry-picked, set 3 (AID 493073); assay type: functional
T5 sequence (O75030 whole entry): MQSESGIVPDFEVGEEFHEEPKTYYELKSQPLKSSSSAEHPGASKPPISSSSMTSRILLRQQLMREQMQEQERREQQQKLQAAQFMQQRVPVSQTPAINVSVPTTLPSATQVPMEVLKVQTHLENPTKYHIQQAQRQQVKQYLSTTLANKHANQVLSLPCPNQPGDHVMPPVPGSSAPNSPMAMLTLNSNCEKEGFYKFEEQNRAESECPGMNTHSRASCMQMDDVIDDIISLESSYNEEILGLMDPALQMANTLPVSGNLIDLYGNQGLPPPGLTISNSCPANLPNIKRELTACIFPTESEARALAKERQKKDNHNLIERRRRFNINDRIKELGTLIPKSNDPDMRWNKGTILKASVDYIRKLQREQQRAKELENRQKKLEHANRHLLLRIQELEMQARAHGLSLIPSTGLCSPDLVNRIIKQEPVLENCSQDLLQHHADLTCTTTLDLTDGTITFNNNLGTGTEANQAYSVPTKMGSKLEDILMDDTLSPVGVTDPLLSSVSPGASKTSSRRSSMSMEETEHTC

[15] = molecular target: DNA (cytosine-5)-methyltransferase 1 (Homo sapiens, UniProt P26358); experiment: DNMT1 methyltransferase inhibitors, confirmation, biochemical, fluorescent molecular beacon (AID 602386); assay type: functional
[16] = Luminescence Cell-Based Dose Retest to Confirm Inhibitors of Cancer Stem Cells. [Related pubchem assays (depositor defined):AID2717, AID2721]; assay type: functional; conditions: Homo sapiens
[17] = molecular target: T6, Type-1 angiotensin II receptor (Homo sapiens, UniProt P30556); experiment: AT1 receptor agonists, dose response, selectivity assay for APJ receptor agonist project, cell-based, uHTS hits (AID 488865); assay type: functional;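 further: beta-arrestin recruitment to AT1 measured by enzyme fragment complementation luminescence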
T6 sequence (P30556 whole entry): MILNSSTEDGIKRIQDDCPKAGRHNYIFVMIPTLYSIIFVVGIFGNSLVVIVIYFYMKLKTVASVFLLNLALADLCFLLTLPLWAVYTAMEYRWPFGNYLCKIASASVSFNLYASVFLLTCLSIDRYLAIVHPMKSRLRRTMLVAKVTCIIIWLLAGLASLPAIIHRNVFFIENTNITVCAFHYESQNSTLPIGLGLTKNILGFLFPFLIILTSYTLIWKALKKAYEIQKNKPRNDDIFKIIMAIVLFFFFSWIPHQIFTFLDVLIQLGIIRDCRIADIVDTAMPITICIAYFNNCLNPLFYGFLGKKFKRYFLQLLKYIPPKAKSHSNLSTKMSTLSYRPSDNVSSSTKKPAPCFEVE

[18] = molecular target: DNA damage-inducible transcript 3 protein (Mus musculus, UniProt P35639); assay type: functional, Cricetulus griseus
Troponin, cardiac muscle = Troponin, cardiac muscle (Homo sapiens, UniProt P19429+P45379+P63316); experiment: Fluorescence-based biochemical high throughput dose response assay for activators of the calcium sensitivity of cardiac Regulated Thin Filaments (RTF). [Related pubchem assays (depositor defined):AID493008, AID493018, AID504382, AID504383]; assay type: protein-complex assay
Cytochrome P450 1A2 = molecular target: T7, Cytochrome P450 1A2 (Homo sapiens, UniProt P05177);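 further: PubChem cytochrome P450 panel assay, CYP1A2 panel member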
T7 sequence (P05177 whole entry): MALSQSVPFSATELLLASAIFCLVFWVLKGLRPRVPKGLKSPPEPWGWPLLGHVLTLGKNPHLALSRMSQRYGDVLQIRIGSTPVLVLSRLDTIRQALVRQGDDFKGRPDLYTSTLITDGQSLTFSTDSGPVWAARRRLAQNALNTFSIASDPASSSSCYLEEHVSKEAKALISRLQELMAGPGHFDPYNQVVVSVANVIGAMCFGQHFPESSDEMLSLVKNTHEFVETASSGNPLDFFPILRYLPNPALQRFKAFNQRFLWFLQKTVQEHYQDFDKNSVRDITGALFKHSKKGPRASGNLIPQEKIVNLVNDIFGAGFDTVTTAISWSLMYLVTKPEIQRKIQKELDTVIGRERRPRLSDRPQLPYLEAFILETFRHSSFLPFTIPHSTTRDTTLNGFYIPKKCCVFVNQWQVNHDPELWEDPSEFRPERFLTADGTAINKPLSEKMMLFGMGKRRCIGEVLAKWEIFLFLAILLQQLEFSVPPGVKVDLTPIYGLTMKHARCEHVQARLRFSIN

Cytochrome P450 2C9 = Cytochrome P450 2C9 (Homo sapiens, UniProt P11712)
[19] = molecular target: G-protein coupled receptor 55 (Homo sapiens, UniProt Q9Y2T6); experiment: SAR analysis of selective Agonists of GPR55 using an Image-Based Assay - Set 2. [Related pubchem assays (depositor defined):AID1961, AID1965]; assay type: functional
Cannabinoid receptor 1 [20] = molecular target: T8, Cannabinoid receptor 1 (Homo sapiens, UniProt P21554); experiment: SAR analysis of antagonists of the Cannabinoid Receptor 1 using an Image-Based Assay - Set 3. [Related pubchem assays (depositor defined):AID1961, AID1965]; assay type: functional
Cannabinoid receptor 1 [21] = molecular target: T8, Cannabinoid receptor 1; experiment: SAR analysis of agonists of the Cannabinoid Receptor 1 using an Image-Based Assay - Set 3. [Related pubchem assays (depositor defined):AID1961, AID1965]; assay type: functional
Cannabinoid receptor 2 [22] = molecular target: T9, Cannabinoid receptor 2 (Homo sapiens, UniProt P34972); experiment: SAR analysis of agonists of the Cannabinoid Receptor 2 using an Image-Based Assay - Set 2. [Related pubchem assays (depositor defined):AID1961, AID1965]; assay type: functional
[23] = molecular target: T10, G-protein coupled receptor 35 (Homo sapiens, UniProt Q9HC97); experiment: SAR analysis of Agonists of the GPR35 Receptor using an Image-Based Assay - Set 3. [Related pubchem assays (depositor defined):AID1961, AID1965]; assay type: functional
[24] = molecular target: T10, G-protein coupled receptor 35; experiment: SAR analysis of Antagonists of the GPR35 Receptor using an Image-Based Assay - Set 4. [Related pubchem assays (depositor defined):[…]]; assay type: functional
Cannabinoid receptor 2 [25] = molecular target: T9, Cannabinoid receptor 2; experiment: SAR analysis of antagonists of the Cannabinoid Receptor 2 using an Image-Based Assay - Set 2. [Related pubchem assays (depositor defined):AID1961, AID1965]; assay type: functional

SMILES: Cc1cc(C)cc(-n2c3nc4ccccc4nc3c3c(=O)n(Cc4ccco4)cnc32)c1
- IC50 [1]: 34 µM (active)
- IC50 [2]: 4.14 µM (active)
- IC50 [3]: > 100 µM (inactive)
- IC50 [4]: 1.28 µM (active)
- EC50 [5]: > 260 µM (inactive)

SMILES: CC(C)N1C(=O)/C(=C/C=C/c2ccco2)C(=O)N(Cc2ccco2)C1=O
- CC50 [6]: > 40 µM (active)
- IC50 (HEK293 [7]): > 20 µM (inactive)
- IC50 (HEK293 [8]): > 20 µM (inactive)
- EC50 (HEK293 [9]): > 20 µM (inactive)
- AC50 [10]: 8.26 µM (active)
- IC50 (HEK293 [11]): 18.8 µM (active)
- EC50 [12]: > 20 µM (inactive)
- IC50 (HEK293 [13]): > 20 µM (inactive)
- AC50 [14]: 9.97 µM (active)
- IC50 [15]: 8.31 µM (active)

SMILES: CCCCCCc1cc2cc(-c3nnc(-c4cc(OC)c(OC)c(OC)c4)o3)c(=O)oc2cc1O
- AC50 [16]: 7.35 µM (active)
- EC50 [17]: > 100 µM (inactive)

SMILES: COc1ccc(/C=C/C(=O)NC(=S)NNC(=O)c2cccnc2)cc1
- Absolute IC50 (CHOP) [18]: 10 µM

SMILES: Cc1cc2nc(C3CCCN(C(=O)NCc4ccccc4)C3)[nH]c2cc1C (stereo not drawn)
- EC50 (Troponin, cardiac muscle): > 71.6 µM (inactive)
- AC50 (Cytochrome P450 1A2): 25.1 µM (inconclusive)
- AC50 (Cytochrome P450 2C9): 22.4 µM (inconclusive)

SMILES: COc1ccc(S(=O)(=O)N2CCOCC2)cc1NC(=O)c1cc2c(s1)CCCCCC2
- EC50 [19]: 17.7 µM (inactive)
- IC50 (Cannabinoid receptor 1 [20]): 18.2 µM (inactive)
- EC50 (Cannabinoid receptor 1 [21]): > 32 µM (inactive)
- EC50 (Cannabinoid receptor 2 [22]): > 32 µM (inactive)
- EC50 [23]: > 32 µM (inactive)
- IC50 [24]: > 32 µM (inactive)
- IC50 (Cannabinoid receptor 2 [25]): > 32 µM (inactive)

From ChEMBL document CHEMBL1201862, “PubChem BioAssay data set” (2004)
